# Laboratory results from ChEMBL document CHEMBL1126497, “A new type of cytotoxic annonaceous acetogenin: Giganin from goniothalamus giganteus” (1993).
# Assays:
# Type in all cases: functional
# A549 = experiment: The compound was tested for cytotoxicity against A-549 cell in human lung carcinoma; conditions: read-out: ED50 (the source's name)
# HT-29 = experiment: The compound was tested for cytotoxicity against […] in human colon adenocarcinoma; conditions: read-out: ED50 (the source's name)
# MCF7 = experiment: The compound was tested for cytotoxicity against MCF-7 cell in human breast carcinoma; conditions: read-out: ED50 (the source's name)
# [1] = The compound was tested for cytotoxicity against BST cell in brine shrimp; conditions: Artemia
compound,measurement,setting,value
CCCCCCCCCCCCCCC(O)C(O)CC/C=C\CCC(O)CCCCCC(O)CC1=CC(C)OC1=O (centres undefined),EC50,A549,0.0188 µg/mL
same,EC50,HT-29,6.88 ng/mL
same,EC50,MCF7,1.03 µg/mL
same,LC50,[1],890 µg/mL
